Drawing on patent publication US20140323721A1, “HETEROCYCLIC COMPOUNDS AND USES THEREOF” (INTELLIKINE, LLC, priority 2011, published 2014), this text covers IC50 for 25 compounds.

Where two headings read alike, the source gives them in different places. Where only a bound is given, the exact number is not on record here.

For assay [1], the target named is PI3K α (Homo sapiens, UniProt P42336). Put plainly: PI 3-Kinase HTRF inhibition assay, PI3K α. The assay is classed as biochemical. To be noted: in vitro. The method, then:
(§1) Commercial kits or systems for assaying PI3-K activities are available. The commercially available kits or systems can be used to screen for inhibitors and/or agonists of PI3-Ks including but not limited to PI 3-Kinase α, β, δ, and γ. Anr exemplary system is PI 3-Kinase (human) HTRF™ Assay from Upstate. […] Briefly, the assay is a time resolved FRET assay that indirectly measures PIP3 product formed by the activity of a PI3-K. The kinase reaction is performed in a microtitre plate (e.g., a 384 well microtitre plate). The total reaction volume is approximately 20 ul per well. In the first step, each well receives 2 ul of test compound in 20% dimethylsulphoxide resulting in a 2% DMSO final concentration. Next, approximately 14.5 ul of a kinase/PIP2 mixture (diluted in 1× reaction buffer) is added per well for a final concentration of 0.25-0.3 ug/ml kinase and 10 μM PIP2. The plate is sealed and incubated for 15 minutes at room temperature. To start the reaction, 3.5 ul of ATP (diluted in 1× reaction buffer) is added per well for a final concentration of 10 μM ATP. The plate is sealed and incubated for 1 hour at room temperature. The reaction is stopped by adding 5 ul of Stop Solution per well and then 5 ul of Detection Mix is added per well. The plate is sealed, incubated for 1 hour at room temperature, and then read on an appropriate plate reader. Data is analyzed and IC50s are generated using GraphPad Prism 5. For PI3K α, β, δ, and γ, the nM conentration of inhibitor to reach IC50 is provided. […] Similar assays, and others known in the art, can be used to measure the percent inhibition of other kinases, including but not limited to PI3K class II kinases, phosphoinositide 4 kinases (PI4K), and phosphoinositide 5 kinases (PI5K).
On the technique in general: In TR-FRET formats the signal depends on donor and acceptor labels being close together.

For assay [2], the target named is PI3K δ (Homo sapiens, UniProt O00329). Put plainly: PI 3-Kinase HTRF inhibition assay, PI3K δ. The class given is biochemical. The conditions noted are these: in vitro. The method, then:
as §1

Assay [3] concerns the target PI3K β (Homo sapiens, UniProt P42338). Put plainly: PI 3-Kinase HTRF inhibition assay, PI3K β. The assay is classed as biochemical. The method, then:
as §1

The target in assay [4] is PI3K γ (Homo sapiens, UniProt P48736). Put plainly: PI 3-Kinase HTRF inhibition assay, PI3K γ. The class given is biochemical. The conditions noted are these: in vitro.
Chain of PI3K γ (P48736 whole entry): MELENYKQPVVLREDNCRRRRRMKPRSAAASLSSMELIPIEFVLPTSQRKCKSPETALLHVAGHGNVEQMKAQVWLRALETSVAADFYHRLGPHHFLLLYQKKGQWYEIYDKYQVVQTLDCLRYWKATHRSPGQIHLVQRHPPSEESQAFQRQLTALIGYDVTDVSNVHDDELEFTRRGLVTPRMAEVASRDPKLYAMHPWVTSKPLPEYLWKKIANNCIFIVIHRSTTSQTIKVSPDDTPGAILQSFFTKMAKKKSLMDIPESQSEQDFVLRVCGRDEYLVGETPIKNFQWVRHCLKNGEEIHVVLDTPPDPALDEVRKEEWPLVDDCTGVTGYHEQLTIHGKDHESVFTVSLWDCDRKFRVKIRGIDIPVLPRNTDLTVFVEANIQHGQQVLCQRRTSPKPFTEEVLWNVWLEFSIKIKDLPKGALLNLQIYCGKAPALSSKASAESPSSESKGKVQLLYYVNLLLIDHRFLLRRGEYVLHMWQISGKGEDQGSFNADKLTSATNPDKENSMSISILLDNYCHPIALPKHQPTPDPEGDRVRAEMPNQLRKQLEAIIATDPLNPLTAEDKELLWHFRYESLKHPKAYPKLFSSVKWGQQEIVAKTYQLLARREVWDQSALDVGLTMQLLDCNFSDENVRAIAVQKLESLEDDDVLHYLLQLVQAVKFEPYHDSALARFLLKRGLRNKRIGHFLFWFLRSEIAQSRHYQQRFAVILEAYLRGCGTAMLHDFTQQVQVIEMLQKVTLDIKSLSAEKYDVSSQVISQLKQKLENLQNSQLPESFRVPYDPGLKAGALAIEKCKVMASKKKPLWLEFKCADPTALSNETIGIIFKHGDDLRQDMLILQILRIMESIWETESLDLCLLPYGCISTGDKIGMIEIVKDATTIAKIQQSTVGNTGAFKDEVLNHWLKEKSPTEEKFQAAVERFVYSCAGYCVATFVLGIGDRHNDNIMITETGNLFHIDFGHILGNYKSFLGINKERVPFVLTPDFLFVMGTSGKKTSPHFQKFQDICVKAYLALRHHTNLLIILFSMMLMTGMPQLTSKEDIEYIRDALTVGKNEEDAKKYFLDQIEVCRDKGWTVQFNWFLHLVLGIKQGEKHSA
Assay [5] relates to MDA-MB-361. Put plainly: MDA-MB-361 proliferation. The class given is cell-based. The conditions noted are these: Homo sapiens; in vitro IC50, MDA-MB-361 cells. The method, then:
The ability of one or more subject compounds to inhibit tumor cell line proliferation is determined according to standard procedures known in the art. For instance, an in vitro cellular proliferation assay can be performed to measure the metabolic activity of live cells. The assay is performed in a 96 well microtiter plate using Alamar Blue reduction. Human tumor cell lines are obtained from ATCC (e.g., MCF7, U-87 MG, MDA-MB-468, PC-3), grown to confluency in T75 flasks, trypsinized with 0.25% trypsin, washed one time with Tumor Cell Media (DMEM+10% FBS), and plated in 90 ul at 5,000 cells/well in Tumor Cell Media. A compound disclosed herein is diluted in Tumor Cell Media and added in a 10 ul volume. Plates are incubated for 72 hours at 37 C and 5% CO2. A volume of 10 uL of Alamar Blue reagent is added to each well and plates are incubated for 3 hours at 37 C and 5% CO2. Alamar Blue fluoresce is read at 560 Ex/590 Em, and IC50 values are calculated using GraphPad Prism 5.
Cells comprising one or more mutations in PI3Kα, including but not limited to breast cancer cells (e.g., MDA-MB-361 and T47D), and cells comprising one or more mutations in PTEN including but not limited to prostate cancer cells (e.g., PC3), are typically grown in cell growth media such as DMEM supplemented with fetal bovine serum and/or antibiotics, and grown to confluency. Cells are then treated with various concentrations of test compound for about 2 hours and subsequently lysed in cell lysis buffer. Lysates are subjected to SDS-PAGE followed by Western blot analysis to detect downstream signaling markers, including but not limited to pAKT(S473), pAKT(T308), pS6, and p4E-BP1. Degree of proliferation (and proliferation inhibition) can also be measured for cells at various doses of compound of the present invention.

Setting [6] is: in vitro, read-out: PI3K β IC50.

Chain of PI3K β (P42338 whole entry): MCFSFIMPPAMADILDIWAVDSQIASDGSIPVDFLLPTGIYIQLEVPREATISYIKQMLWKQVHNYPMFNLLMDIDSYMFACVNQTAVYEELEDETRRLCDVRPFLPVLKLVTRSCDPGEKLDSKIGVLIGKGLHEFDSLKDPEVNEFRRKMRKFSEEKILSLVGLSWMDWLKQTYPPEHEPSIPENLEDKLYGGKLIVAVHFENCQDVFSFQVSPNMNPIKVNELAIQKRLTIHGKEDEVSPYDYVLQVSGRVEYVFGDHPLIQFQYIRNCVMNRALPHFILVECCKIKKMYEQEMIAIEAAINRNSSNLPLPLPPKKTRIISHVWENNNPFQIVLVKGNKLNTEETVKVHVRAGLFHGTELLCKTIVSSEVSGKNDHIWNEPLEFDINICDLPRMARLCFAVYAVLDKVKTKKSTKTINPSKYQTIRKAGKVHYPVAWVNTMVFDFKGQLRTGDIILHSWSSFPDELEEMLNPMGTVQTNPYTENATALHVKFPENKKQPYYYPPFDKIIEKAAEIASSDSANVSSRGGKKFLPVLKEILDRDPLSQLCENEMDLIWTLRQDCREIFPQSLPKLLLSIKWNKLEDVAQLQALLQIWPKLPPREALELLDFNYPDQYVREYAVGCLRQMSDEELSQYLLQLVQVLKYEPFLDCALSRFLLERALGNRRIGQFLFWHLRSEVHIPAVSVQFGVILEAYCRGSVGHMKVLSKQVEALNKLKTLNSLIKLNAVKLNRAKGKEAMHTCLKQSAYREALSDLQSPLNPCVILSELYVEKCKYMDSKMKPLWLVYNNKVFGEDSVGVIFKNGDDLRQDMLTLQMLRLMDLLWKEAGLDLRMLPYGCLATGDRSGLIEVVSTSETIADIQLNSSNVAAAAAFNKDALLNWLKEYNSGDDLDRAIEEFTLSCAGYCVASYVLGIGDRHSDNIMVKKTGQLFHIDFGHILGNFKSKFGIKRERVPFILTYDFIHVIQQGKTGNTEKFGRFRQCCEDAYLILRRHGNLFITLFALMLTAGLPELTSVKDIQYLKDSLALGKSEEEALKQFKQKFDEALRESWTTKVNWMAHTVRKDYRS
Chain of PI3K β (P27986 whole entry partner): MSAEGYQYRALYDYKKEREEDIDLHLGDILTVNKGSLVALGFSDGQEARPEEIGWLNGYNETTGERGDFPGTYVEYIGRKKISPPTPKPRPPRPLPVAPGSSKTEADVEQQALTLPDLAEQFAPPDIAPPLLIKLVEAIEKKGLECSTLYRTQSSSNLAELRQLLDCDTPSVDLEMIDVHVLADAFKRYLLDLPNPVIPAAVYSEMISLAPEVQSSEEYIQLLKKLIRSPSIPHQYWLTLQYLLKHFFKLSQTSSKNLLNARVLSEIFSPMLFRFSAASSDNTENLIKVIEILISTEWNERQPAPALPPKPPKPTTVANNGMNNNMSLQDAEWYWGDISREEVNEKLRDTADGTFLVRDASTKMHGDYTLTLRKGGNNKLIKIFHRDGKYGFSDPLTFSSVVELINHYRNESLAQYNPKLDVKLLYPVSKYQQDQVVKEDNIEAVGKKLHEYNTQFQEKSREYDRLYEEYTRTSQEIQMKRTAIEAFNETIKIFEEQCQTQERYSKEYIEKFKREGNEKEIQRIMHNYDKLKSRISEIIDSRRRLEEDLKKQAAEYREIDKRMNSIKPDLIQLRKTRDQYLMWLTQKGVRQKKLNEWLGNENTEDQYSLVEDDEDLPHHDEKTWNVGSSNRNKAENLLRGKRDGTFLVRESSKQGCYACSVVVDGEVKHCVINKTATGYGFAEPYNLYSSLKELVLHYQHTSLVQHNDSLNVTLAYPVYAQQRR
Chain of PI3K δ (O00329 whole entry): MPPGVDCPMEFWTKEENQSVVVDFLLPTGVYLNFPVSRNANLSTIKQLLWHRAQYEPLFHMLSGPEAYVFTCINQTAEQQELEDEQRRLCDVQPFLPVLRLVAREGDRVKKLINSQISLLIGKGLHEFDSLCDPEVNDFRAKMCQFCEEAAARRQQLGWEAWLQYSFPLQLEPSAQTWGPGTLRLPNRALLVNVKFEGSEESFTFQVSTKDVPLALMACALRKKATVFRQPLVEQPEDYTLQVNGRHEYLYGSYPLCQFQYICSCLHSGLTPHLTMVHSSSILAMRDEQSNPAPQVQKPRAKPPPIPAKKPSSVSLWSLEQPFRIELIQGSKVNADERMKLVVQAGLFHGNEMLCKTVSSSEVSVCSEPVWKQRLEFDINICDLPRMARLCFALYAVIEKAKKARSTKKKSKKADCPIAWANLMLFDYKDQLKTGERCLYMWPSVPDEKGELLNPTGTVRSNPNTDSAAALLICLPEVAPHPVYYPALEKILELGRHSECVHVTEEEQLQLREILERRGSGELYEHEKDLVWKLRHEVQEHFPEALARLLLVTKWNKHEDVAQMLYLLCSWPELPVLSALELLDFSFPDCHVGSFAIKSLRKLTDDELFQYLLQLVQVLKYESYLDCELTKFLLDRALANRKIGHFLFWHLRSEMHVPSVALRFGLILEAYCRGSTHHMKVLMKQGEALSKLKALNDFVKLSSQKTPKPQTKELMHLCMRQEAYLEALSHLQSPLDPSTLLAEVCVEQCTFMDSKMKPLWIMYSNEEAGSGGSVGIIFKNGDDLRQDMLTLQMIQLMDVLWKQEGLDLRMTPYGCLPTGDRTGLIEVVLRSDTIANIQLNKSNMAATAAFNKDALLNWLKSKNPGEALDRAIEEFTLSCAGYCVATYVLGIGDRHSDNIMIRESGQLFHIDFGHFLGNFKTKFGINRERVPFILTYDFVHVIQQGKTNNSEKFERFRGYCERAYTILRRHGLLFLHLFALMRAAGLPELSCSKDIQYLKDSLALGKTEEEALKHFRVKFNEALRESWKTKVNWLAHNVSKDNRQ
Chain of PI3K δ (P27986 whole entry partner): as the sequence (P27986 whole entry partner) above
Chain of PI3K α (P42336 whole entry): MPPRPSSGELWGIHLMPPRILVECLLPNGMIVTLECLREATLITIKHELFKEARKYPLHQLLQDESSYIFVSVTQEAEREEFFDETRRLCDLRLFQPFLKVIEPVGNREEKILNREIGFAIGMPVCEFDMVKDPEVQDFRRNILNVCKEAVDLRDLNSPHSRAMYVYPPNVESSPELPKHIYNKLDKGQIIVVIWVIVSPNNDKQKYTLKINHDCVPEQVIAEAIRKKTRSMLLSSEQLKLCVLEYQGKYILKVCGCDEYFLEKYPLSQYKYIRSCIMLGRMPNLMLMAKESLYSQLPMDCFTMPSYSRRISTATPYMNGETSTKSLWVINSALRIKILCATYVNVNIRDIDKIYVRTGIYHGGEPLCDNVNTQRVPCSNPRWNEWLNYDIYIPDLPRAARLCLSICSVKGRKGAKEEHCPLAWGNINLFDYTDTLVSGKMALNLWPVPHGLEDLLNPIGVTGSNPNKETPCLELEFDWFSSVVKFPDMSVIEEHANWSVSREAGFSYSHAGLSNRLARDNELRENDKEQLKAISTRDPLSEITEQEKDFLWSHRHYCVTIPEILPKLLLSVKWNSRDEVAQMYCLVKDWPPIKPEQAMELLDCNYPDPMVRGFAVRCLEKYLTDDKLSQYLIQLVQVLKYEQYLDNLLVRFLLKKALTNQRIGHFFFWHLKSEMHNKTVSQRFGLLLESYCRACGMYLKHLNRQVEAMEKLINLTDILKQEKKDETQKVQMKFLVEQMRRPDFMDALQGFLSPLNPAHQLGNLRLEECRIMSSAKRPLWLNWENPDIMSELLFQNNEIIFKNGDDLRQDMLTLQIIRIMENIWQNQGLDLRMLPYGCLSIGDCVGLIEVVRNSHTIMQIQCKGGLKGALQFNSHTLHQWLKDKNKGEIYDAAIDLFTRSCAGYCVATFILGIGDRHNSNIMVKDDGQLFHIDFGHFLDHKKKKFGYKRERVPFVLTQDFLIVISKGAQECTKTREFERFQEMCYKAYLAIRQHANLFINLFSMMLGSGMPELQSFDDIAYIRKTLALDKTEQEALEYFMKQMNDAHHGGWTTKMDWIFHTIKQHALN
Chain of PI3K α (P27986 whole entry partner): as the sequence (P27986 whole entry partner) above

Regarding `CC1CN(C2CN(c3cnc4ccc(-c5ccc6oc(N)nc6c5)nc4n3)C2)CCO1` (centres unmarked) [Compound 18], the values for the IC50 in assay [1], in assay [2] and in assay [3] (setting [6]) were less than 1 µM, more than 10 µM and more than 10 µM, respectively.
On to `Nc1nc2cc(-c3ccc4ncc(N5C6CCC5COC6)nc4n3)ccc2o1` [Compound 19], for which the IC50 in assay [1] is less than 0.1 µM; in assay [2], more than 10 µM; in assay [4], less than 0.1 µM; in assay [5], less than 1 µM; in assay [3] (setting [6]), more than 10 µM.
For the compound `Nc1nc2cc(-c3ccc4ncc(N5CC(N6CC7CCC(C6)O7)C5)nc4n3)ccc2o1` [Compound 20], the IC50 is less than 1 µM in assay [1], more than 10 µM in assay [2] and more than 10 µM in assay [3] (setting [6]).
Regarding `Nc1nc2cc(-c3ccc4ncc(N5C6CCC5COC6)cc4n3)ccc2o1` [Compound 23], the IC50 in assay [1] is less than 0.1 µM; in assay [2], more than 10 µM; in assay [4], less than 0.1 µM.
On to `Nc1nc2cc(-c3ccc4ncc(N5CC6CCC(C5)O6)nc4n3)ccc2o1` [Compound 28], for which the IC50 is less than 0.1 µM in assay [1]; more than 10 µM in assay [2]; less than 1 µM in assay [4]; less than 1 µM in assay [5]; more than 10 µM in assay [3] (setting [6]).
As to `Nc1nc2cc(-c3ccc4ncc(N5CC(N6C7CCC6COC7)C5)nc4n3)ccc2o1` [Compound 51], the IC50 in assay [2], in assay [4] and in assay [3] (setting [6]) was more than 10 µM each time.
Turning to `Nc1nc2cc(-c3ccc4ncc(N5CC6CCC(C5)O6)cc4n3)ccc2o1` [Compound 59], the IC50 in assay [1] is less than 0.1 µM; in assay [2] it was more than 10 µM; in assay [4], less than 0.1 µM; in assay [5] it was less than 1 µM; in assay [3] (setting [6]), more than 10 µM.
In the case of `Nc1nc2cc(-c3ccc4ncc(N5CC(N6C7CCC6COC7)C5)cc4n3)ccc2o1` [Compound 67], the concentration for half-maximal inhibition (IC50) was less than 0.1 µM in assay [1], less than 1 µM in assay [4], less than 10 µM in assay [5] and more than 10 µM in assay [3] (setting [6]).
`C[C@H]1COCCN1C1CN(c2cnc3ccc(-c4ccc5oc(N)nc5c4)nc3c2)C1` [Compound 68] registered an IC50 in assay [5] of less than 10 µM.
Still for that read-out and setting: to `Nc1nc2cc(-c3ccc4ncc(N5CC(N6CCN(C7CC7)CC6)C5)nc4n3)ccc2o1` [Compound 69] belongs less than 10 µM; to `Nc1nc2cc(-c3ccc4ncc(N5CC(N6CCN(C7CC7)CC6)C5)cc4n3)ccc2o1` [Compound 70], less than 10 µM; to `CN1CCN(C2CN(c3cnc4ccc(-c5ccc6oc(N)nc6c5)nc4n3)C2)CC1` [Compound 71], less than 10 µM.
Take `CC(C)N1CCN(C2CN(c3cnc4ccc(-c5ccc6oc(N)nc6c5)nc4c3)C2)CC1` [Compound 72, 5-(7-(3-(4-isopropylpiperazin-1-yl)azetidin-1-yl)-1,5-naphthyridin-2-yl)benzo[d]oxazol-2-amine]: the IC50 in assay [5] is less than 1 µM.
In turn, `CN1CCN(C2CN(c3cnc4ccc(-c5ccc6oc(N)nc6c5)nc4c3)C2)CC1` [Compound 74] showed an IC50 in assay [5] of less than 1 µM.
In turn, `CCN1CCN(C2CN(c3cnc4ccc(-c5ccc6oc(N)nc6c5)nc4c3)C2)CC1` [Compound 75] had an IC50 in assay [5] of less than 1 µM.
For the compound `CN1CC2CN(c3cnc4ccc(-c5ccc6oc(N)nc6c5)nc4n3)CC2C1` (centres unmarked) [Compound 78], in assay [5], the IC50 is less than 10 µM.
For `CN1CC2CN(c3cnc4ccc(-c5ccc6oc(N)nc6c5)nc4c3)CC2C1` (centres unmarked) [Compound 79], the IC50 was less than 0.1 µM in assay [1]; less than 1 µM in assay [2]; less than 1 µM in assay [4]; less than 10 µM in assay [5]; less than 1 µM in assay [3] (setting [6]).
With `Nc1nc2cc(-c3cnc4ccc(N5C6CCC5COC6)nc4c3)ccc2o1` [Compound 81], the IC50 in assay [2] and in assay [3] was more than 10 µM throughout.
As to `CN1CCN(C2CN(c3cnc4ccc(-c5ccc6oc(N)nc6c5)nc4c3)C2)CC1(C)C` [Compound 83], the IC50 in assay [1] was less than 0.1 µM; in assay [2] it was less than 0.1 µM; in assay [4] it was less than 1 µM; in assay [5], less than 0.1 µM; in assay [3] (setting [6]) it was less than 1 µM.
For the compound `CN1CCN(C2CN(c3ccc4ncc(-c5ccc6oc(N)nc6c5)cc4n3)C2)CC1` [Compound 84], the IC50 in assay [2], in assay [4] and in assay [3] (setting [6]) was more than 10 µM each time.
Consider `CC(C)N1CCN(C2CN(c3cnc4ccc(-c5ccc6nc(N)[nH]c6c5)nc4c3)C2)CC1` [Compound 85], for which the IC50 in assay [1] was less than 0.1 µM; in assay [2] it was more than 10 µM; in assay [4], more than 10 µM; in assay [3] (setting [6]), more than 10 µM.
For the compound `C[C@@H]1CN(C2CN(c3cnc4ccc(-c5ccc6nc(N)[nH]c6c5)nc4c3)C2)CCN1C` [Compound 86], the IC50 in assay [1] was less than 0.1 µM; in assay [2], more than 10 µM; in assay [4], more than 10 µM; in assay [3] (setting [6]), more than 10 µM.
As to `CCN1CCN(C2CN(c3cnc4ccc(-c5ccc6nc(N)[nH]c6c5)nc4c3)C2)CC1` [Compound 87], the IC50 in assay [1] is less than 0.1 µM; in assay [2], more than 10 µM; in assay [4] it was more than 10 µM; in assay [3] (setting [6]), more than 10 µM.
Take `CN1CCN(C2CN(c3cnc4ccc(-c5ccc6nc(N)[nH]c6c5)nc4c3)C2)CC1` [Compound 88]: the IC50 in assay [1] was less than 0.1 µM; in assay [2] it was more than 10 µM; in assay [4] it was more than 10 µM; in assay [3] (setting [6]) it was more than 10 µM.
Regarding `C[C@H]1CN(C2CN(c3cnc4ccc(-c5ccc6nc(N)[nH]c6c5)nc4c3)C2)CCN1C` [Compound 89], the 50% inhibitory concentration (IC50) is less than 0.1 µM in assay [1], more than 10 µM in assay [2], more than 10 µM in assay [4] and more than 10 µM in assay [3] (setting [6]).

For orientation: IC50 means the midpoint of a concentration-inhibition curve.
